Source: patent US20190084939A1, “ANALOGS OF FEXARAMINE AND METHODS OF MAKING AND USING” (Salk Institute for Biological Studies, priority 2014, published 2019)
Where two headings read alike, the source gives them in different places.

Molecular target: T1, Human FXR full length (Homo sapiens, UniProt Q96RI1)
T1 construct: Human FXR full length and RXR full length was obtained from Ronald Evans' laboratory; expressed in transfected cells; host or cells: CV-1 cells
T1 sequence (Q96RI1 1-476 isoform Q96RI1-1): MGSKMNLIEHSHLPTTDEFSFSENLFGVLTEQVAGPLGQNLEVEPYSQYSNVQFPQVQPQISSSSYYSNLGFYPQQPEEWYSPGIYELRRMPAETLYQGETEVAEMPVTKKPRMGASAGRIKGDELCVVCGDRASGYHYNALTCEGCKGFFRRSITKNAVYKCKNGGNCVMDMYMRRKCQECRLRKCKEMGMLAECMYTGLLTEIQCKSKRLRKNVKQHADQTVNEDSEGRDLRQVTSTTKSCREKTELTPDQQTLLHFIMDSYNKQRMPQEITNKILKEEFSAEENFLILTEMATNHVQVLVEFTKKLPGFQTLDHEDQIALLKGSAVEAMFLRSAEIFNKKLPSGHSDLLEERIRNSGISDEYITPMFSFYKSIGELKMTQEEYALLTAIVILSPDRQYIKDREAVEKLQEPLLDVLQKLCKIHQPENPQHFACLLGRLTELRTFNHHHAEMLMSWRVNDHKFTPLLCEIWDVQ
T1 sequence (P19793 1-462 partner): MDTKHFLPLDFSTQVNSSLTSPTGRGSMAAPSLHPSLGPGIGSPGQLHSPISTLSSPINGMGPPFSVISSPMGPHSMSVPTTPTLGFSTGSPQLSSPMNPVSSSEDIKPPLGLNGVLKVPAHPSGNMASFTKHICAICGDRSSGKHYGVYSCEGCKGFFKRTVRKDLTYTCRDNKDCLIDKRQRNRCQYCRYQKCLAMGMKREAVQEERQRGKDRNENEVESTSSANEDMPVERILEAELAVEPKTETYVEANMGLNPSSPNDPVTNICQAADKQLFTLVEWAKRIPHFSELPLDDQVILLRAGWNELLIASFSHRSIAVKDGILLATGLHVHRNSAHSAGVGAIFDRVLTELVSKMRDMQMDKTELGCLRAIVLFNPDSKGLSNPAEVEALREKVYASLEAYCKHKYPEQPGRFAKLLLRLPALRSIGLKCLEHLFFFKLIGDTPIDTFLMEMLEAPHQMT
Assay: FXR activity screen, luciferase reporter in transfected CV-1 cells
Assay type: cell-based
Protocol: CV-1 cells were grown in DMEM+10% charcoal stripped FCS. Cells were seeded into 384-well plates the day before transfection to give a confluency of 50-80% at transfection. A total of […] DNA containing 0.32 micrograms pCMX-hFXRfl, 0.32 micrograms pCMX-hRXRfl, 0.1 micrograms pCMXβGal, 0.08 micrograms pGLFXRE reporter and 0.02 micrograms pCMX empty vector was transfected per well using FuGene transfection reagent according to the manufacturer's instructions (Roche). Cells were allowed to express protein for 48 hours followed by addition of compound.
Human FXR full length and RXR full length was obtained from Ronald Evans' laboratory and PCR amplification of the hFXR cDNA and the hRXR cDNA was performed. The amplified cDNAs was cloned into the vector pCMX generating the plasmids pCMX-hFXRfl and pCMX-hRXRfl. Ensuing fusions were verified by sequencing. The pCMXMH2004 luciferase reporter contains multiple copies of the GAL4 DNA response element under a minimal eukaryotic promoter (Hollenberg and Evans, 1988). pCMXβGal was generated in the Evans laboratory, Salk Institute.
All compounds were dissolved in DMSO and diluted 1:1000 upon addition to the cells. Compounds were tested in quadruple in concentrations ranging from 0.001 to 100 μM. Cells were treated with compound for 24 hours followed by luciferase assay. Each compound was tested in at least two separate experiments.
Medium including test compound was aspirated and washed with PBS. 50 μL PBS including 1 mM Mg^2+ and Ca^2+ were then added to each well. The luciferase assay was performed using the LucLite kit according to the manufacturer's instructions (Packard Instruments). Light emission was quantified by counting on a Perkin Elmer Envision reader. To measure […] activity 25 μL supernatant from each transfection lysate was transferred to a new 384 microplate. Beta-galactosidase assays were performed in the microwell plates using a kit from Promega and read in a Perkin Elmer Envision reader. The beta-galactosidase data were used to normalize (transfection efficiency, cell growth etc.) the luciferase data.
The activity of a compound is calculated as fold induction compared to an untreated sample. For each compound the efficacy (maximal activity) is given as a relative activity compared to Fexaramine, a FXR agonist. The EC50 is the concentration giving 50% of maximal observed activity. EC50 values were calculated via non-linear regression using GraphPad PRISM (GraphPad Software, San Diego, Calif.).

[1] = first round, CV-1 cells, 24 hours, read-out: 1st RND EC50
[2] = second round, CV-1 cells, 24 hours, read-out: 2nd RND EC50

| EC50 [1] | EC50 [2] | EC50 (retest, read-out: EC50 (retested)) | Structure (SMILES) |
| --- | --- | --- | --- |
| 68.6 nM | 55.8 nM | – | COC(=O)/C=C/c1cccc(N(Cc2cccc3ccc(N(C)C)cc23)C(=O)C2CCCCC2)c1 [NSSK00001] |
| 96.8 nM | 65.9 nM | – | COC(=O)/C=C/c1cccc(N(Cc2cccc3ccc(N(C)C)c(F)c23)C(=O)C2CCCCC2)c1 [NSSK00002] |
| 237 nM | 266 nM | – | COC(=O)/C=C/c1cccc(N(Cc2ccc(-c3ccc4c(cnn4C)c3)cc2)C(=O)C2CCCCC2)c1 [NSSK00004] |
| 1820 nM | 2100 nM | – | COC(=O)/C=C/c1cncc(N(Cc2cccc3cc4cnn(C)c4cc23)C(=O)C2CCCCC2)c1 [NSSK00005] |
| 273 nM | 243 nM | – | COC(=O)/C=C/c1cccc(N(Cc2cccc3cc4cnn(C)c4c(F)c23)C(=O)C2CCCCC2)c1 [NSSK00006] |
| 473 nM | 169 nM | – | COC(=O)/C=C/c1cc(F)cc(N(Cc2cccc3cc4cnn(C)c4c(F)c23)C(=O)C2CCCCC2)c1 [NSSK00007] |
| 2000 nM | 1400 nM | – | COC(=O)/C=C/c1cncc(N(Cc2cccc3cc4cnn(C)c4c(F)c23)C(=O)C2CCCCC2)c1 [NSSK00008] |
| 3300 nM | 4900 nM | – | COC(=O)/C=C/c1cncc(N(Cc2cccc3cc4cnn(C)c4c(Cl)c23)C(=O)C2CCCCC2)c1 [NSSK00009] |
| 1200 nM | 1200 nM | – | [2H]C(c1ccc(-c2ccc3c(cnn3C)c2)cc1F)N(C(=O)C1CCCCC1)c1cncc(/C=C/C(=O)OC)c1 (centres unmarked) [NSSK00012] |
| 346 nM | 475 nM | – | [2H]C(c1ccc(-c2ccc3c(cnn3C)c2)cc1Cl)N(C(=O)C1CCCCC1)c1cccc(/C=C/C(=O)OC)c1 (centres unmarked) [NSSK00014] |
| 380 nM | 415 nM | – | COC(=O)/C=C/c1cncc(N(Cc2cccc3cc4cnn(C)c4cc23)C(=O)[C@@H]2C[C@@H]3CC[C@H]2C3)c1 [NSSK00018] |
| 923 nM | 554 nM | – | COC(=O)/C=C/c1cccc(N(Cc2cccc3cc4cnn(C)c4c(F)c23)C(=O)C2C[C@H]3CC[C@@H]2C3)c1 (some centres unmarked) [NSSK00019] |
| 743 nM | 464 nM | – | COC(=O)/C=C/c1cc(F)cc(N(Cc2cccc3cc4cnn(C)c4c(F)c23)C(=O)C2C[C@H]3CC[C@@H]2C3)c1 (some centres unmarked) [NSSK00020] |
| 3200 nM | 2700 nM | – | COC(=O)/C=C/c1cncc(N(Cc2cccc3cc4cnn(C)c4c(Cl)c23)C(=O)C2C[C@H]3CC[C@@H]2C3)c1 (some centres unmarked) [NSSK00022] |
| 2600 nM | 2900 nM | – | [2H]C(c1ccc(-c2ccc(N(C)C)cc2)cc1Cl)N(C(=O)C1CCCCC1)c1cncc(/C=C/C(=O)OC)c1 (centres unmarked) [NSSK00032] |
| 169 nM | 254 nM | – | [2H]C(c1ccc(-c2ccc3c(cnn3C)c2)cc1)N(C(=O)C1CCCCC1)c1cccc(/C=C/C(=O)OC)c1 (centres unmarked) [NSSK00033] |
| 2200 nM | 2680 nM | – | [2H]C(c1ccc(-c2ccc3c(cnn3C)c2)cc1)N(C(=O)C1CCCCC1)c1cncc(/C=C/C(=O)OC)c1 (centres unmarked) [NSSK00034] |
| 18600 nM | 4900 nM | – | COC(=O)/C=C/c1cccc(N(Cc2cccc3cc4cnn(C)c4c(F)c23)C(=O)C2CCN(C)CC2)c1 [NSSK00036] |

Further lines, the compound ahead of its results:

| Structure (SMILES) | EC50 [1] | EC50 [2] | EC50 (retest, read-out: EC50 (retested)) |
| --- | --- | --- | --- |
| [2H]C(c1ccc(-c2ccc3c(cnn3C)c2)cc1F)N(C(=O)C1CCCCC1)c1cc(F)cc(/C=C/C(=O)OC)c1 (centres unmarked) [NSSK00011] | 289 nM | 379 nM | – |
| [2H]C(c1ccc(-c2ccc3c(cnn3C)c2)cc1Cl)N(C(=O)[C@@H]1C[C@@H]2CC[C@H]1C2)c1cccc(/C=C/C(=O)OC)c1 (some centres unmarked) [NSSK00013] | 390 nM | 430 nM | – |
| [2H]C(c1ccc(-c2ccc3c(cnn3C)c2)cc1Cl)N(C(=O)C1CCCCC1)c1cc(F)cc(/C=C/C(=O)OC)c1 (centres unmarked) [NSSK00016] | 285 nM | 377 nM | – |
| COC(=O)/C=C/c1cccc(N(Cc2ccc(-c3ccc4c(cnn4C)c3)cc2)C(=O)[C@H]2C[C@H]3CC[C@@H]2C3)c1 [NSSK00017] | 756 nM | 500 nM | – |
| [2H]C(c1ccc(-c2ccc(N(C)C)cc2)cc1)N(C(=O)C1CCCCC1)c1cc(F)cc(/C=C/C(=O)OC)c1 (centres unmarked) [NSSK00025] | 150 nM | 168 nM | – |
| [2H]C(c1ccc(-c2ccc(N(C)C)cc2)cc1)N(C(=O)[C@@H]1C[C@@H]2CC[C@H]1C2)c1cncc(/C=C/C(=O)OC)c1 (some centres unmarked) [NSSK00026] | 587 nM | 910 nM | – |
| [2H]C(c1ccc(-c2ccc(N(C)C)cc2)cc1F)N(C(=O)C1CCCCC1)c1cccc(/C=C/C(=O)OC)c1 (centres unmarked) [NSSK00027, methyl (E)-3-(3-(N-((4′-(dimethylamino)-3-fluoro-[1,1′-biphenyl]-4-yl)methyl-d)cyclohexanecarboxamido)phenyl)acrylate] | 48.9 nM | 46.6 nM | 118 nM |
| [2H]C(c1ccc(-c2ccc(N(C)C)cc2)cc1F)N(C(=O)[C@@H]1C[C@@H]2CC[C@H]1C2)c1cncc(/C=C/C(=O)OC)c1 (some centres unmarked) [NSSK00029] | 605 nM | 510 nM | – |
| [2H]C(c1ccc(-c2ccc(N(C)C)cc2)cc1F)N(C(=O)C1CCCCC1)c1cncc(/C=C/C(=O)OC)c1 (centres unmarked) [NSSK00030] | 656 nM | 375 nM | – |
| [2H]C(c1ccc(-c2ccc(N(C)C)cc2)cc1Cl)N(C(=O)C1CCCCC1)c1cccc(/C=C/C(=O)OC)c1 (centres unmarked) [NSSK00031] | 366 nM | 249 nM | – |
| COC(=O)/C=C/c1cccc(N(Cc2ccc(-c3ccc4c(cnn4C)c3)cc2)C(=O)C2CCN(C)CC2)c1 [NSSK00035] | 3300 nM | 4490 nM | – |
| [2H]C(c1ccc(-c2ccc3c(cnn3C)c2)cc1F)N(C(=O)c1ccccc1)c1cccc(/C=C/C(=O)OC)c1 (centres unmarked) [NSSK00038] | 1370 nM | 1900 nM | – |
| [2H]C(c1ccc(-c2ccc3c(cnn3C)c2)cc1F)N(C(=O)c1ccccc1)c1cc(F)cc(/C=C/C(=O)OC)c1 (centres unmarked) [NSSK00039] | 1550 nM | 870 nM | – |
| [2H]C(c1ccc(-c2ccc3c(cnn3C)c2)cc1Cl)N(C(=O)c1ccccc1)c1cc(F)cc(/C=C/C(=O)OC)c1 (centres unmarked) [NSSK00041] | 1100 nM | 1200 nM | – |
| COC(=O)/C=C/c1cccc(N(Cc2ccc(-c3ccc(N(C)C)cc3)cc2)C(=O)[C@@H]2C[C@@H]3CC[C@H]2C3)c1 [NSSK00042] | 135 nM | 620 nM | – |
| COC(=O)/C=C/c1cccc(N(Cc2ccc(-c3ccc(N(C)C)cc3)cc2F)C(=O)[C@@H]2C[C@@H]3CC[C@H]2C3)c1 [NSSK00043] | 80.9 nM | 80.7 nM | – |
| COC(=O)/C=C/c1cc(F)cc(N(Cc2ccc(-c3ccc(N(C)C)cc3)cc2F)C(=O)[C@@H]2C[C@@H]3CC[C@H]2C3)c1 [NSSK00044] | 149 nM | 144 nM | – |
| [2H]C(c1ccc(-c2ccc(N(C)C)cc2)cc1Cl)N(C(=O)[C@@H]1C[C@@H]2CC[C@H]1C2)c1cccc(/C=C/C(=O)OC)c1 (some centres unmarked) [NSSK00045] | 334 nM | 334 nM | – |
| COC(=O)/C=C/c1cccc(N(Cc2ccc(-c3ccc4c(cnn4C)c3)cc2Cl)C(=O)[C@@H]2C[C@@H]3CC[C@H]2C3)c1 [NSSK00046] | 639 nM | 519 nM | – |
| COC(=O)/C=C/c1cc(F)cc(N(Cc2ccc(-c3ccc4c(cnn4C)c3)cc2Cl)C(=O)[C@@H]2C[C@@H]3CC[C@H]2C3)c1 [NSSK00047] | 355 nM | 403 nM | – |
